{"source": "patent US11597708B2", "about": "“Inhibitors of heat shock factors and uses thereof” (HSF Pharmaceuticals SA, priority 2016, dated 2023)", "key": {"HSF1": {"biological_target": "T1, HSF1 (Homo sapiens, UniProt Q00613)", "T1 construct": "functionally linked to an hsp70b promoter and therefore controlled by endogenous HSF1; endogenous in cells; host or cells: HeLa cells / HeLa-derived cell line Z74", "T1 sequence (Q00613 1-529)": "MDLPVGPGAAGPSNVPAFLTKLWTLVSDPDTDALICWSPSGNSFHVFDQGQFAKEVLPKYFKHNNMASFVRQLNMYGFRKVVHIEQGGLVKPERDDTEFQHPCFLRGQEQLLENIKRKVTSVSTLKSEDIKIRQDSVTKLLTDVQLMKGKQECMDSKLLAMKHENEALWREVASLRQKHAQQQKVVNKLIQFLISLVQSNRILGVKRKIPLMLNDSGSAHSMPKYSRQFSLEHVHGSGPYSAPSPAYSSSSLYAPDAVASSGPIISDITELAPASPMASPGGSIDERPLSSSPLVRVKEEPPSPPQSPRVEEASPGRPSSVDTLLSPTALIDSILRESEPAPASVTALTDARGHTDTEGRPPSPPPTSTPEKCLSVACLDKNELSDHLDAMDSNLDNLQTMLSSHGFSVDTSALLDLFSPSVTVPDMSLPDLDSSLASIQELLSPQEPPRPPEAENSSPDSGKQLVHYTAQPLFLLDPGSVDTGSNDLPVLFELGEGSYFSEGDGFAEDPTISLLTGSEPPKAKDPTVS", "assay": "Z74 cell-based reporter assay: heat-induced RLuc expression controlled by endogenous HSF1", "conditions": "for IC50: inhibition of HSF1 activity [RLuc]; for inhibition at 12.5 µM: 12.5 μM IHSF, negative values marked *: compound enhanced rLuc activity, read-out: Inhibition of HSF1 activity at 12.5 μM IHSF [RLuc] (%)", "outline": "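HeLa-derived Z74 cells carry LexA-HSF1-driven firefly luciferase and hsp70b promoter-driven Renilla luciferase, the latter under endogenous HSF1. Cells were treated with compound at 12.5 or 25 μM for 2 h, heated to 43.0 °C for 30 min, then kept 6 h at 37 °C. Both luciferases were read by dual-luciferase luminescence.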"}, "hspa7 (hsp70b)": {"system": "hspa7 (hsp70b)", "assay": "Reverse transcription real-time PCR of hspa7 (hsp70b) mRNA in Z74 cells", "format": "cell-based, human", "conditions": "heat-treated, somewhat less sensitive than rluc gene", "protocol": "FIG. 4. (A) rluc, hspa7 and hspa1a mRNA levels in Z74 cells mock-exposed (−) or exposed to the indicated concentrations of compounds 058 or 115 for 2 hours, heat-treated (HS) at 43° C. for 30 min and post-incubated for one hour at 37° C. mRNA levels were quantified by reverse transcription-real-time PCR. (B) HSP72 levels in HeLa cells mock-exposed (−) or exposed to the indicated concentrations of compounds 058 or 115 for 2 hours, heat-treated (HS) at 43° C. for 30 min and post-incubated for 6 hours at 37° C. HSP72 levels were estimated by HSP72 WB. GAPDH levels served as “loading controls”.\nTo assess the transcriptional effects of the IHSF, cultures of Z74 cells were exposed for two hours to IHSF 058 or IHSF 115 at different concentrations, or to vehicle. Following heat treatment and a one-hour post-incubation at 37° C., extracts were prepared, and polyadenylated rluc, hsp70b (hspa7) and hspa1a RNA was quantified by reverse transcription and real-time PCR. […] IHSF 115 had somewhat more important effects than IHSF 058. […] We tend to discount the possibility that the latter data report effects on transcript stability."}, "[1]": {"conditions": "Z74 cells, 25 μM IHSF, 2 h exposure, 43° C. 30 min, 6 h at 37° C., read-out: Inhibition of HSF1 activity at 25 μM IHSF [RLuc] (%)"}}, "note": "Where two headings read alike, the source gives them in different places.", "data": [{"molecule": "CCOC(=O)/C=C/C(=O)Nc1nccs1", "note": "[IHSF 001, (E)-ethyl 4-oxo-4-(thiazol-2-ylamino)but-2-enoate]", "values": [{"measurement": "inhibition at 25 µM", "setting": "HSF1; IHSF 001 tested at 25 μM, Experiment No. 1, read-out: Inhibition of HSF1 activity [RLuc] (%)", "value": 66, "unit": "%"}, {"measurement": "inhibition at 25 µM", "setting": "HSF1; IHSF 001 tested at 25 μM, Experiment No. 2, read-out: Inhibition of HSF1 activity [RLuc] (%)", "value": 69, "unit": "%"}, {"measurement": "inhibition at 25 µM", "setting": "HSF1; IHSF 001 tested at 25 μM, Experiment No. 3, read-out: Inhibition of HSF1 activity [RLuc] (%)", "value": 69, "unit": "%"}, {"measurement": "inhibition at 25 µM", "setting": "HSF1; IHSF 001 tested at 25 μM, Experiment No. 4, read-out: Inhibition of HSF1 activity [RLuc] (%)", "value": 67, "unit": "%"}, {"measurement": "inhibition at 25 µM", "setting": "HSF1; IHSF 001 tested at 25 μM, Experiment No. 5, read-out: Inhibition of HSF1 activity [RLuc] (%)", "value": 68, "unit": "%"}, {"measurement": "inhibition at 25 µM", "setting": "HSF1; IHSF 001 tested at 25 μM, Experiment No. 6, read-out: Inhibition of HSF1 activity [RLuc] (%)", "value": 63, "unit": "%"}, {"measurement": "inhibition at 25 µM", "setting": "HSF1; IHSF 001 tested at 25 μM, Experiment No. 7, read-out: Inhibition of HSF1 activity [RLuc] (%)", "value": 56, "unit": "%"}, {"measurement": "inhibition at 25 µM", "setting": "HSF1; IHSF 001 tested at 25 μM, Experiment No. 8, read-out: Inhibition of HSF1 activity [RLuc] (%)", "value": 51, "unit": "%"}, {"measurement": "inhibition at 25 µM", "setting": "HSF1; IHSF 001 tested at 25 μM, Experiment No. 9, read-out: Inhibition of HSF1 activity [RLuc] (%)", "value": 45, "unit": "%"}, {"measurement": "IC50", "setting": "HSF1; Z74 cells", "value": 17.8, "unit": "µM"}, {"measurement": "inhibition at 12.5 µM", "setting": "HSF1; Z74 cells", "value": 37, "unit": "%"}, {"measurement": "inhibition at 25 µM", "setting": "HSF1; [1]", "value": 64, "unit": "%"}]}, {"molecule": "CCOC(=O)/C=C/C(=O)Nc1ncc(-c2cccnc2)s1", "note": "[IHSF 058, (E)-3-(5-Pyridm-3-yl-thiazol-2-ylcarbamoyl)-acrylic acid ethyl ester]", "values": [{"measurement": "IC50", "setting": "HSF1; Z74 cells", "value": 4.8, "unit": "µM"}, {"measurement": "inhibition at 12.5 µM", "setting": "HSF1; Z74 cells", "value": 79, "unit": "%"}, {"measurement": "inhibition at 25 µM", "setting": "HSF1; [1]", "value": 97, "unit": "%"}, {"measurement": "hspa7 (hsp70b) transcript accumulation", "setting": "hspa7 (hsp70b)", "value": "Dose-dependent inhibitory effects"}]}, {"molecule": "CN(C(=O)/C=C/C1=NCCCO1)c1ncc(-c2cccnc2)s1", "note": "[IHSF 115, (E)-3-(5,6-Dihydro-4H-[1,3]oxazin-2-yl)-N-methyl-N-(5-pyridin-3-yl-thiazol-2-yl)-acrylamide]", "values": [{"measurement": "IC50", "setting": "HSF1; Z74 cells", "value": 0.7, "unit": "µM"}, {"measurement": "inhibition at 12.5 µM", "setting": "HSF1; Z74 cells", "value": 99, "unit": "%"}, {"measurement": "inhibition at 25 µM", "setting": "HSF1; [1]", "value": 100, "unit": "%"}, {"measurement": "activity in the Z74-based screening assay", "setting": "HSF1; most potent IHSF", "value": "substantial activity in the high nanomolar range"}, {"measurement": "hspa7 (hsp70b) transcript accumulation", "setting": "hspa7 (hsp70b)", "value": "Dose-dependent inhibitory effects"}]}]}
